This note sets out measurements from US9376454B2, “Beta-lactamase inhibitors” (priority 2013, dated 2016).

Usually IC50 stands for the concentration that gives 50% inhibition.

Structures are written as SMILES.

The target in assay [1] is T1, VIM-2 metallo β-lactamase (Pseudomonas aeruginosa, UniProt Q9K2N0).
T1 construct: made in house; host or cells: E. coli BL21(DE3)
Put plainly: β-Lactamase inhibition enzyme assay, VIM-2. The class given is biochemical. Conditions: Nitrocefin 100 μM as substrate, 486 nm; 15 min at 37° C. with enzyme, PBS pH 7.4; read-out: Class B VIM-2 IC50. Summed up: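 Purified untagged VIM-2, expressed in E. coli BL21(DE3), preincubated with inhibitor 15 min at 37 °C. Nitrocefin added at 100 μM final, and absorbance at 486 nm monitored for 10 min. IC50 taken as inhibitor concentration halving initial hydrolysis rate relative to uninhibited controls.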

The subject of assay [2] is E. cloacae 144200 expressing p99 AmpC. Put plainly: Broth microdilution MIC assay, E. cloacae P99. In kind it is cell-based. Conditions: fixed ceftazidime 4 μg/mL; CAMHB, 16-20 hours at 37° C.
The target in another assay is T2, p99 AmpC β-lactamase (Enterobacter cloacae, UniProt P05364).
T2 construct: made in house; host or cells: E. coli BL21(DE3)
As to the kind of experiment: β-Lactamase inhibition enzyme assay, p99 AmpC. In kind it is biochemical. Summed up:
(§1)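 Native untagged β-lactamases from E. coli BL21(DE3) were purified and preincubated with inhibitor 15 min at 37° C. Hydrolysis was then followed as initial rates: 100 μM nitrocefin at 486 nm for p99 AmpC and OXA-1, imipenem at 300 nm for KPC-2, cefotaxime at 260 nm for SHV-5. IC50 = 50% reduction versus no-inhibitor controls.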

The target in a further assay is T3, OXA-1 β-lactamase (Escherichia coli, UniProt P13661).
T3 construct: made in house; host or cells: E. coli BL21(DE3)
Put plainly: β-Lactamase inhibition enzyme assay, OXA-1. Conditions: Nitrocefin 100 μM as substrate, 486 nm; 15 min at 37° C. with enzyme, PBS pH 7.4; read-out: Class D OXA-1 IC50. The class given is biochemical. Summed up:
as §1

For the next assay, the target named is T4, SHV-5 β-lactamase (Klebsiella pneumoniae, UniProt P0A3M1).
T4 construct: made in house; host or cells: E. coli BL21(DE3)
As to the kind of experiment: β-Lactamase inhibition enzyme assay, SHV-5. The class given is biochemical. Summed up: as §1

The target in a further assay is T5, KPC-2 β-lactamase (Klebsiella pneumoniae, UniProt Q9F663).
T5 construct: made in house; host or cells: E. coli BL21(DE3)
As to the kind of experiment: β-Lactamase inhibition enzyme assay, KPC-2. In kind it is biochemical. Conditions: imipenem as substrate, 300 nm; 15 min at 37° C. with enzyme, PBS pH 7.4; read-out: Class A KPC-2 IC50. Summed up:
as §1

The subject of assay [3] is E. coli ESBL4 expressing CTX-M-15. Put plainly: Broth microdilution MIC assay, E. coli CTX-M-15. The class given is cell-based. The conditions noted are these: E. coli expressing Class A ESBL CTX-M-15. In general terms: Broth dilution looks for growth in wells or tubes with falling amounts of substance.
The test system of assay [4] is P. aeruginosa Ps296 expressing VIM-2. Put plainly: Broth microdilution MIC assay, P. aeruginosa VIM-2. In kind it is cell-based. Conditions: P. aeruginosa expressing carbapenemase VIM-2.
Assay [5] concerns K. pneumoniae A-1797 expressing KPC-2 and VIM-4. Put plainly: Broth microdilution MIC assay, K. pneumoniae KPC-2 and VIM-4. In kind it is cell-based. The conditions noted are these: K. pneumoniae expressing KPC-2 and VIM-4.

T3 sequence (P13661 26-276): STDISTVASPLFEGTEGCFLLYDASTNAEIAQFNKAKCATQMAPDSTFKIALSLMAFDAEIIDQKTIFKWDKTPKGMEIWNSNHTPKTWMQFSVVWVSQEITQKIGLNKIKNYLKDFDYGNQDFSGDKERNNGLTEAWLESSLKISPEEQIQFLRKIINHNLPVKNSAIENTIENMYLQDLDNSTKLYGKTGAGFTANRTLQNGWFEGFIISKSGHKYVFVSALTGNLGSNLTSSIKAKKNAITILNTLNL
T5 sequence (Q9F663 25-293, looked up): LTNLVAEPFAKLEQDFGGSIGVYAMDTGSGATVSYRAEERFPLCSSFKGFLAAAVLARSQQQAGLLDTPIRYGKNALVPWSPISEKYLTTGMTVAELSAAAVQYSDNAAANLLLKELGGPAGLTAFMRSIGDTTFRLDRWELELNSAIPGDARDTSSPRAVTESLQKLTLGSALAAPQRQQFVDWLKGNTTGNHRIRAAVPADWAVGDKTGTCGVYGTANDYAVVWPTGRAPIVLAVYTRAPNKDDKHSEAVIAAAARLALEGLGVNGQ
T2 sequence (P05364 21-381): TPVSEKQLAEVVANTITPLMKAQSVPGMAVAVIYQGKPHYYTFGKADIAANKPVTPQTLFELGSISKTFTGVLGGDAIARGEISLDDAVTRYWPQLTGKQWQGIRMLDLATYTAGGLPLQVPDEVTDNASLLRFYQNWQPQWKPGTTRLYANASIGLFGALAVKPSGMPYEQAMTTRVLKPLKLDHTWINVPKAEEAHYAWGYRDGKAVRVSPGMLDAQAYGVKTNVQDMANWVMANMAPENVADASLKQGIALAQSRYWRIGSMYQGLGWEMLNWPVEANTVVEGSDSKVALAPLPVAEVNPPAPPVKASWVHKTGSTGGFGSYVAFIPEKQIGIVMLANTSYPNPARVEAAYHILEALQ
T4 sequence (P0A3M1 22-286): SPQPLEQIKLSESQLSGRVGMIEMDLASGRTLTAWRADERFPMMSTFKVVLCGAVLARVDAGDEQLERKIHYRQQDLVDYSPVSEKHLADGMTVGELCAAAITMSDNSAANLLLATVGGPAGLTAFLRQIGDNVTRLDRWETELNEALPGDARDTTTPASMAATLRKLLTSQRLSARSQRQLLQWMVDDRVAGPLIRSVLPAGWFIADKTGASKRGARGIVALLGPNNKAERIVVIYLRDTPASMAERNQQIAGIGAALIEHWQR

Take `NCc1cc(CN)cc(C(=O)N[C@H]2Cc3cccc(C(=O)O)c3OB2O)c1` [Example 44, (R)-3-(3,5-bis(aminomethyl)benzamido)-2-hydroxy-3,4-dihydro-2H-benzo[e][1,2]oxaborinine-8-carboxylic acid]: the IC50 in [1] fell in the range of 1000 to 10000 nM; on p99 AmpC β-lactamase, 100 to 1000 nM; at OXA-1 β-lactamase it was 1000 to 10000 nM; at SHV-5 β-lactamase it was 1000 to 10000 nM; on KPC-2 β-lactamase, 1000 to 10000 nM. In assay [2], the “MIC of Exemplary Compounds in presence of fixed β-lactams: Fixed CAZ, E. cl. 144200 p99 AmpC” value is “C (C represents the MIC in the presence of ≦4 μg/mL of a β-lactamase inhibitor of exemplary compounds)”.
On to `CC(C)(O/N=C(\C(=O)N[C@@H]1C(=O)N2C(C(=O)[O-])=C(C[n+]3ccccc3)CS[C@H]12)c1csc(N)n1)C(=O)O` [Ceftazidime], for which the “MIC alone of partner antibiotic” value in assay [3] is above 128 µg/mL.
For the compound `C[C@@H](O)[C@H]1C(=O)N2C(C(=O)O)=C(S[C@@H]3CN[C@H](C(=O)N(C)C)C3)[C@H](C)[C@H]12` [Meropenem], the “MIC alone of partner antibiotic” value was found to be 16 µg/mL in assay [4] and 64 µg/mL in [5].
